Reference: PubChem BioAssay AID624480 (The Scripps Research Institute Molecular Screening Center, 2012)
Calls of active or inactive are those of the source.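 Rule for the calls: active = inhibition of probe labeling in the gel above a set limit; inactive = inhibition at or below that limit.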

biological target: Prolyl endopeptidase-like (Mus musculus) (UniProt Q8C167); assay: PREPL inhibitors in brain proteome, biochemical, gel-based competitive ABPP, fluorescence, mouse, assay provider (AID 624480); conditions: mouse brain proteome spiked PREPL, FP-Rh gel ABPP; at 50 µM; active compounds read high
Sequence (Q8C167 whole entry, looked up): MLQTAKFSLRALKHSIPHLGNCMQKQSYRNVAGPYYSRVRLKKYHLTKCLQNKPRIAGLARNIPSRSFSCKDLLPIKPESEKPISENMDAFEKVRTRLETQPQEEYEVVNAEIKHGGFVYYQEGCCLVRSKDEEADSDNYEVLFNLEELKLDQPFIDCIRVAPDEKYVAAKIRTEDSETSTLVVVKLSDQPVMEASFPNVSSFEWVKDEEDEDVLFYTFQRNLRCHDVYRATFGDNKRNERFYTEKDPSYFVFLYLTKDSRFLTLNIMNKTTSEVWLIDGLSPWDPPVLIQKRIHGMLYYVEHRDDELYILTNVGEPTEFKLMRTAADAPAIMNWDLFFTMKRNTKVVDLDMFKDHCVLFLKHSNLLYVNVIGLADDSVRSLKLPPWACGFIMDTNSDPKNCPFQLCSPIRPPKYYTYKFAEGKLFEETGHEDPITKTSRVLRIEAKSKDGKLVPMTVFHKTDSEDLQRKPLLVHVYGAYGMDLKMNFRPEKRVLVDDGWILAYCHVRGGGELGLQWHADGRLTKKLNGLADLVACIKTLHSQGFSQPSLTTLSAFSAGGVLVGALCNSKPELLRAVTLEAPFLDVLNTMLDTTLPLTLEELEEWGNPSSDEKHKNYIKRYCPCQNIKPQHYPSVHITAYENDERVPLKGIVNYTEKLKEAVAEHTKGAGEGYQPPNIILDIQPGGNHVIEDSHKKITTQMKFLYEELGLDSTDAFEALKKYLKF

SMILES | inhibition
COc1cc2nc(Nc3ccc(C)c(C)c3)nc(N)c2cc1OC | 17% (inactive)
CCOc1ccc(CCNC(=O)c2ccc3c(=O)[nH]c4c(C(=O)NC(C)C)sc(=S)n4c3c2)cc1 | 25%
N#Cc1c2c(c(-c3ccccc3)[nH]c1=O)CCCC2 | 41%
CC(C)Cc1[nH]c(=O)c(C#N)c2c1CCC2 | 70%
O=C(Nc1ccc2c(c1)OCCO2)c1cccc2nc3ccccc3nc12 | 15% (inactive)
